The source made the active and inactive calls. The rule behind the calls is not given here.
Test system: rodent carcinogenicity bioassays, tumor incidence
Assay: CCRIS carcinogenicity studies
Source text: The CCRIS database contains chemical records with carcinogenicity, mutagenicity, tumor promotion, and tumor inhibition test results. It was developed by the National Cancer Institute (NCI). Data are derived from studies cited in primary journals, current awareness tools, NCI reports, and other sources. Test results have been reviewed by experts in carcinogenesis and mutagenesis.
CCRIS provides historical information from the years 1985 - 2011. It is no longer updated.
This is an archive assay for CCRIS carcinogenicity studies.

Q: What does the source list for `C[C@@H]1Cc2c(Cl)cc(C(=O)NC(Cc3ccccc3)C(=O)O)c(O)c2C(=O)O1` (some centres not stated)?
A: carcinogen call (Species: MOUSE, Strain/Sex: ALBINO/MALE,FEMALE, Route: GAVAGE, Dose: 0, 0.25 ML OF 50 PPM SOLUTION 2/WK FOR 20 WK (STUDY DURATION: 20 WK), Tumor Site: Type of Lesion: KIDNEY: CARCINOMA): active; positive; carcinogen call (Species: MOUSE, Strain/Sex: CD-1/FEMALE, Route: ORAL, Dose: 0, 0.031, 0.125, 0.5% IN DIET FOR 78 WK (STUDY DURATION: 78 WK), Dose: 0, 0.031, 0.125, 0.5% IN DIET FOR 78 WK (STUDY DURATION: 78 WK)): inactive; negative; carcinogen call (Species: MOUSE, Strain/Sex: CD-1/MALE, Route: ORAL, Dose: 0, 0.031, 0.125, 0.5% IN DIET FOR 78 WK (STUDY DURATION: 78 WK), Dose: 0, 0.031, 0.125, 0.5% IN DIET FOR 78 WK (STUDY DURATION: 78 WK)): inactive; negative; carcinogen call (Species: MOUSE, Strain/Sex: DDD/MALE, Route: ORAL, Dose: 0, 25 PPM IN DIET FOR 70 WK (STUDY DURATION: 70 WK), Tumor Site: Type of Lesion: KIDNEY: RENAL CELL TUMOR, LIVER: HEPATOMA): active; positive; carcinogen call (Species: MOUSE, Strain/Sex: DDY/MALE, Route: ORAL, Dose: 0, 7.05, 17.24, 26.27, 33.16, 35.86, 42.67 MG/MOUSE (TOTAL DOSE) ADMINISTERED AT A DOSE OF 50 PPM IN DIET FOR 0, 5, 10,, Dose: 0, 7.05, 17.24, 26.27, 33.16, 35.86, 42.67 MG/MOUSE (TOTAL DOSE) ADMINISTERED AT A DOSE OF 50 PPM IN DIET FOR 0, 5, 10,, Tumor Site: Type of Lesion: LIVER: HEPATOMA, KIDNEY: RENAL CELL TUMOR): active; positive; carcinogen call (Species: MOUSE, Strain/Sex: SWISS/MALE,FEMALE, Route: GAVAGE, Dose: 0, 0.25 ML OF A 50 PPM SOLUTION 2/WK FOR 20 WK (STUDY DURATION: 20 WK), Tumor Site: Type of Lesion: KIDNEY: CARCINOMA): active; positive; carcinogen call (Species: RAT, Strain/Sex: DA/FEMALE, Route: GAVAGE, Dose: 0, 0.4 MG/KG BW IN SODIUM BICARBONATE 3/WK FOR DURATION OF STUDY (STUDY DURATION: LIFESPAN)): inactive; negative; carcinogen call (Species: RAT, Strain/Sex: DA/MALE, Route: GAVAGE, Dose: 0, 0.4 MG/KG BW IN SODIUM BICARBONATE 3/WK FOR DURATION OF STUDY (STUDY DURATION: LIFESPAN), Tumor Site: Type of Lesion: KIDNEY: ADENOCARCINOMA, ADENOMA): active; positive; carcinogen call (Species: RAT, Strain/Sex: F344/FEMALE, Route: GAVAGE, Dose: 0, 21, 70, 210 UG/KG IN CORN OIL 5 D/WK FOR 103 WK (STUDY DURATION: 105 WK), Dose: 0, 21, 70, 210 UG/KG IN CORN OIL 5 D/WK FOR 103 WK (STUDY DURATION: 105 WK), Tumor Site: Type of Lesion: KIDNEY TUBULE: ADENOMA, CARCINOMA, MAMMARY GLAND: FIBROADENOMA, ADENOMA OR FIBROADENOMA OR ADENOCARCINOMA): active; positive; carcinogen call (Species: RAT, Strain/Sex: F344/MALE, Route: GAVAGE, Dose: 0, 21, 70, 210 UG/KG IN CORN OIL 5 D/WK FOR 103 WK (STUDY DURATION: 106 WK), Dose: 0, 21, 70, 210 UG/KG IN CORN OIL 5 D/WK FOR 103 WK (STUDY DURATION: 106 WK), Tumor Site: Type of Lesion: KIDNEY TUBULE: ADENOMA, CARCINOMA): active; positive; carcinogen call (Species: RAT, Strain/Sex: LEWIS/FEMALE, Route: GAVAGE, Dose: 0, 0.4 MG/KG BW IN SODIUM BICARBONATE 3/WK FOR DURATION OF STUDY (STUDY DURATION: LIFESPAN), Tumor Site: Type of Lesion: KIDNEY: ADENOCARCINOMA): active; positive; carcinogen call (Species: RAT, Strain/Sex: LEWIS/MALE, Route: GAVAGE, Dose: 0, 0.4 MG/KG BW IN SODIUM BICARBONATE 3/WK FOR DURATION OF STUDY (STUDY DURATION: LIFESPAN), Tumor Site: Type of Lesion: KIDNEY: ADENOCARCINOMA): active; positive

Q: With `CNC(=O)Oc1cccc2c1OC(C)(C)C2` as the molecule, how does the carcinogen call (Species: MOUSE, Strain/Sex: ICR/FEMALE, Route: ORAL, Dose: 0, 3, 8 PPM IN DRINKING WATER FOR 12 MO (STUDY DURATION: 12 MO), Dose: 0, 3, 8 PPM IN DRINKING WATER FOR 12 MO (STUDY DURATION: 12 MO)) read?
A: inactive; negative

Q: And the carcinogen call (Species: MOUSE, Strain/Sex: ICR/MALE, Route: ORAL, Dose: 0, 3, 8 PPM IN DRINKING WATER FOR 12 MO (STUDY DURATION: 12 MO), Dose: 0, 3, 8 PPM IN DRINKING WATER FOR 12 MO (STUDY DURATION: 12 MO))?
A: inactive; negative

Q: What about the carcinogen call (Species: Mouse, Strain/Sex: Charles River CD-1/Female (60/group), Route: Oral, Dose: 0, 20, 125, 500 ppm in diet for 2 yrs, Dose: 0, 20, 125, 500 ppm in diet for 2 yrs) of the same molecule?
A: inactive; negative (study details not given in source; purity 95.6%)

Q: What about the carcinogen call (Species: Mouse, Strain/Sex: Charles River CD-1/Male (60/group), Route: Oral, Dose: 0, 20, 125, 500 ppm in diet for 2 yrs, Dose: 0, 20, 125, 500 ppm in diet for 2 yrs) of the same molecule?
A: inactive; negative (study details not given in source; purity 95.6%)

Q: What about the carcinogen call (Species: Rat, Strain/Sex: Charles River CD/Female (60/group), Route: Oral, Dose: 0, 10, 20, 100 ppm in diet for 2 yrs, Dose: 0, 10, 20, 100 ppm in diet for 2 yrs) of the same molecule?
A: inactive; negative (study details not given in source; purity 95.6%)

Q: What about the carcinogen call (Species: Rat, Strain/Sex: Charles River CD/Male (60/group), Route: Oral, Dose: 0, 10, 20, 100 ppm in diet for 2 yrs, Dose: 0, 10, 20, 100 ppm in diet for 2 yrs) of the same molecule?
A: inactive; negative (study details not given in source; purity 95.6%)

Q: With `CC1CO1` (configuration not stated) as the molecule, how does the carcinogen call (Species: MOUSE, Strain/Sex: B6C3F1/FEMALE, Route: INHALATION, Dose: 0, 200, 400 PPM 6 HR/D, 5 D/WK FOR 103 WK, Dose: 0, 200, 400 PPM 6 HR/D, 5 D/WK FOR 103 WK, Tumor Site: Type of Lesion: NASAL TURBINATES: HEMANGIOMA OR HEMANGIOSARCOMA) read?
A: active; positive

Q: And the carcinogen call (Species: MOUSE, Strain/Sex: B6C3F1/MALE, Route: INHALATION, Dose: 0, 200, 400 PPM 6 HR/D, 5 D/WK FOR 103 WK, Dose: 0, 200, 400 PPM 6 HR/D, 5 D/WK FOR 103 WK, Tumor Site: Type of Lesion: NASAL TURBINATES: HEMANGIOMA, HEMANGIOSARCOMA)?
A: active; positive

Q: What about the carcinogen call (Species: MOUSE, Strain/Sex: NMRI/FEMALE, Route: SUBCUTANEOUS, Dose: 0, 0.1, 0.3, 1, 2.5 MG/MOUSE IN TRICAPRYLIN 1/WK FOR 95 WK (STUDY DURATION: 110 WK), Dose: 0, 0.1, 0.3, 1, 2.5 MG/MOUSE IN TRICAPRYLIN 1/WK FOR 95 WK (STUDY DURATION: 110 WK), Tumor Site: Type of Lesion: INJECTION SITE: TUMOR) of the same molecule?
A: active; positive

Q: And the carcinogen call (Species: RAT, Route: SUBCUTANEOUS, Tumor Site: Type of Lesion: INJECTION SITE)?
A: active; positive

Q: And the carcinogen call (Species: RAT, Strain/Sex: F344/FEMALE, Route: INHALATION, Dose: 0, 200, 400 PPM 6 HR/D, 5 D/WK FOR 103 WK, Dose: 0, 200, 400 PPM 6 HR/D, 5 D/WK FOR 103 WK, Tumor Site: Type of Lesion: NASAL TURBINATES: PAPILLARY ADENOMA)?
A: active; positive

Q: And the carcinogen call (Species: RAT, Strain/Sex: F344/MALE, Route: INHALATION, Dose: 0, 100, 300 PPM IN AIR 7 HR/D 5 D/WK FOR 104 WK (STUDY DURATION: 2 YR), Dose: 0, 100, 300 PPM IN AIR 7 HR/D 5 D/WK FOR 104 WK (STUDY DURATION: 2 YR), Tumor Site: Type of Lesion: ADRENAL GLAND: PHEOCHROMOCYTOMA, PITUITARY GLAND: ADENOMA)?
A: active; positive

Q: What about the carcinogen call (Species: RAT, Strain/Sex: F344/MALE, Route: INHALATION, Dose: 0, 200, 400 PPM 6 HR/D, 5 D/WK FOR 103 WK, Dose: 0, 200, 400 PPM 6 HR/D, 5 D/WK FOR 103 WK, Tumor Site: Type of Lesion: NASAL TURBINATES: PAPILLARY ADENOMA) of the same molecule?
A: active; positive

Q: What about the carcinogen call (Species: RAT, Strain/Sex: SPRAGUE-DAWLEY/FEMALE, Route: GAVAGE, Dose: 15, 60 MG/KG IN SALAD OIL 2/WK FOR UP TO 150 WK, Tumor Site: Type of Lesion: FORESTOMACH: SQUAMOUS CELL CARCINOMA) of the same molecule?
A: active; positive

Q: And the carcinogen call (Species: RAT, Strain/Sex: SPRAGUE-DAWLEY/MALE, Route: INHALATION, Dose: 0, 435, 870, 1740 PPM 6 HR/D 5 D/WK FOR 30 D EXCEPT 1740 PPM GROUP WHICH WAS EXPOSED FOR 5 D (STUDY DURATION: LIFETIME), Dose: 0, 435, 870, 1740 PPM 6 HR/D 5 D/WK FOR 30 D EXCEPT 1740 PPM GROUP WHICH WAS EXPOSED FOR 5 D (STUDY DURATION: LIFETIME))?
A: inactive; negative
